Assay results: PubChem BioAssay AID330 (DTP/NCI, 2004)
Several values for one entry are separate records, joined by “and”; a condition that tells them apart may be missing. Equal values may be shown once. Inconclusive results and toxic doses are left out. How the source made its calls: active means survival T/C of 150% or more; inactive means T/C below 125% in these data.

System: P388 leukemia ip, CD2F1 mice, survival T/C
Experiment: NCI In Vivo Anticancer Drug Screen. Data for tumor model P388 Leukemia (intraperitoneal) in CD2F1 (CDF1) mice
Conditions: endpoint: median survival time, higher = longer survival
Outline: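 Mice carrying the transplanted tumor received test compound or vehicle. Survival was recorded in each group, and the value is the treated-group measurement divided by that of the vehicle-treated control group.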

[1] = dose: 50.0 mg/kg/injection, schedule: Q01DX005 (ip), vehicle: saline with Tween-80
[2] = dose: 100.0 mg/kg/injection, schedule: Q01DX005 (ip), vehicle: saline with Tween-80
[3] = dose: 200.0 mg/kg/injection, schedule: Q01DX005 (ip), vehicle: saline with Tween-80
[4] = dose: 50.0 mg/kg/injection, schedule: Q01DX009 (ip), vehicle: saline with Tween-80
[5] = dose: 100.0 mg/kg/injection, schedule: Q01DX009 (ip), vehicle: saline with Tween-80
[6] = dose: 200.0 mg/kg/injection, schedule: Q01DX009 (ip), vehicle: saline with Tween-80
[7] = dose: 400.0 mg/kg/injection, schedule: Q01DX009 (ip), vehicle: saline with Tween-80
[8] = dose: 50.0 mg/kg/injection, schedule: Q01DX005 (ip), vehicle: Klucel (hydroxypropylcellulose) (HPC)
[9] = dose: 100.0 mg/kg/injection, schedule: Q01DX005 (ip), vehicle: Klucel (hydroxypropylcellulose) (HPC)
[10] = dose: 200.0 mg/kg/injection, schedule: Q01DX005 (ip), vehicle: Klucel (hydroxypropylcellulose) (HPC)
[11] = dose: 60.0 mg/kg/injection, schedule: Q01DX005 (ip), vehicle: saline with Tween-80
[12] = dose: 120.0 mg/kg/injection, schedule: Q01DX005 (ip), vehicle: saline with Tween-80
[13] = dose: 12.5 mg/kg/injection, schedule: Q01DX009 (ip), vehicle: water
[14] = dose: 50.0 mg/kg/injection, schedule: Q01DX009 (ip), vehicle: saline
[15] = dose: 100.0 mg/kg/injection, schedule: Q01DX009 (ip), vehicle: saline
[16] = dose: 200.0 mg/kg/injection, schedule: Q01DX009 (ip), vehicle: saline
[17] = dose: 60.0 mg/kg/injection, schedule: Q01DX005 (ip), vehicle: Klucel (hydroxypropylcellulose) (HPC)
[18] = dose: 120.0 mg/kg/injection, schedule: Q01DX005 (ip), vehicle: Klucel (hydroxypropylcellulose) (HPC)
[19] = dose: 240.0 mg/kg/injection, schedule: Q01DX005 (ip), vehicle: Klucel (hydroxypropylcellulose) (HPC)
[20] = dose: 12.5 mg/kg/injection, schedule: Q01DX005 (ip), vehicle: saline with Tween-80
[21] = dose: 25.0 mg/kg/injection, schedule: Q01DX005 (ip), vehicle: saline with Tween-80

Measured: T/C

O=C(NCCc1ccccc1)c1ccccc1
inactive: dose: 50.0 mg/kg/injection, schedule: Q04DX003 (ip), vehicle: saline with Tween-80 100 % of control | dose: 100.0 mg/kg/injection, schedule: Q04DX003 (ip), vehicle: saline with Tween-80 90 % of control | dose: 200.0 mg/kg/injection, schedule: Q04DX003 (ip), vehicle: saline with Tween-80 95 % of control | dose: 400.0 mg/kg/injection, schedule: Q04DX003 (ip), vehicle: saline with Tween-80 100 % of control

O=C1NC(=O)c2cc3ccccc3cc21
inactive: [1] 87 % of control | [2] 87 % of control | [3] 91 % of control

CC(=O)c1ccccc1NC(=O)COc1ccccc1OCC(=O)Nc1ccccc1C(C)=O
inactive: [1] 100 % of control | [2] 92 % of control | [3] 96 % of control

CCOC(=O)CC1(C)NC(=O)NC1=O (centres undefined)
inactive: dose: 50.0 mg/kg/injection, schedule: Q04DX003 (ip), vehicle: Klucel (hydroxypropylcellulose) (HPC) 108 % of control | dose: 100.0 mg/kg/injection, schedule: Q04DX003 (ip), vehicle: Klucel (hydroxypropylcellulose) (HPC) 100 % of control | dose: 200.0 mg/kg/injection, schedule: Q04DX003 (ip), vehicle: Klucel (hydroxypropylcellulose) (HPC) 101 % of control | dose: 400.0 mg/kg/injection, schedule: Q04DX003 (ip), vehicle: Klucel (hydroxypropylcellulose) (HPC) 100 % of control

COC(=O)C(NC(=O)OCc1ccccc1)C(C)O (centres undefined)
inactive: dose: 12.5 mg/kg/injection, schedule: Q01DX009 (ip), vehicle: distilled water + Tween-80 90 % of control | dose: 25.0 mg/kg/injection, schedule: Q01DX009 (ip), vehicle: distilled water + Tween-80 102 % of control | dose: 50.0 mg/kg/injection, schedule: Q01DX009 (ip), vehicle: distilled water + Tween-80 100 % of control | dose: 100.0 mg/kg/injection, schedule: Q01DX009 (ip), vehicle: distilled water + Tween-80 105 % of control | dose: 200.0 mg/kg/injection, schedule: Q01DX009 (ip), vehicle: distilled water + Tween-80 94 % of control

COP(=O)(OC)/C(=N\NS(=O)(=O)c1ccc(C)cc1)c1ccccc1
inactive: [4] 100 % of control | [5] 103 % of control | [6] 117 % of control | [7] 119 % of control

CC1=CCC(C#N)N(C)C1c1ccccc1 (centres undefined)
inactive: [8] 108 % of control | [9] 97 % of control | [10] 99 % of control

Nc1nnc(-c2ccc(Nc3nc4ccccc4[nH]3)c([N+](=O)[O-])c2)s1
inactive: [11] 98 % of control | [12] 101 % of control

Cc1ccc2c(c1)C(=O)N(CC[P+](c1ccccc1)(c1ccccc1)c1ccccc1)C2=O
inactive: dose: 0.78 mg/kg/injection, schedule: Q01DX009 (ip), vehicle: water 100 % of control and 113 % of control | dose: 1.56 mg/kg/injection, schedule: Q01DX009 (ip), vehicle: water 117 % of control and 120 % of control | dose: 3.13 mg/kg/injection, schedule: Q01DX009 (ip), vehicle: water 121 % of control | [13] 118 % of control

O=S(=O)(O)CCNC(=S)C(=S)NCCS(=O)(=O)O
inactive: [14] 100 % of control | [15] 100 % of control | [16] 101 % of control

Nc1ccc(C(=O)Nc2ccc(C(=O)Nc3ccc(/C=C/c4ccc(NC(=O)c5ccc(N)cc5)cc4S(=O)(=O)O)c(S(=O)(=O)O)c3)cc2)cc1
inactive: [14] 99 % of control | [15] 113 % of control | [16] 100 % of control

Cc1cc2nc3ccc(=[N+](C)C)cc-3sc2cc1N
inactive: dose: 25.0 mg/kg/injection, schedule: Q04DX003 (ip), vehicle: saline 100 % of control and 108 % of control | dose: 50.0 mg/kg/injection, schedule: Q04DX003 (ip), vehicle: saline 117 % of control and 91 % of control | dose: 100.0 mg/kg/injection, schedule: Q04DX003 (ip), vehicle: saline 109 % of control and 123 % of control

COC(=O)CC1SC(=S)N(Cc2ccc(Cl)cc2)C1=O (centres undefined)
inactive: [17] 94 % of control | [18] 90 % of control | [19] 90 % of control

CCOC(=O)N1N=C(c2ccccc2)OC2(N3CCCC3)CCC(C(C)(C)C)CC12 (centres undefined)
inactive: [8] 89 % of control | [9] 96 % of control | [10] 96 % of control

CC12c3ccccc3CCN1C(c1ccccc1)=NN2c1ccccc1 (centres undefined)
inactive: dose: 100.0 mg/kg/injection, schedule: Q01DX001 (ip), vehicle: saline with Tween-80 105 % of control | dose: 200.0 mg/kg/injection, schedule: Q01DX001 (ip), vehicle: saline with Tween-80 103 % of control | dose: 400.0 mg/kg/injection, schedule: Q01DX001 (ip), vehicle: saline with Tween-80 102 % of control

O=NNc1nc2ncccc2cc1-c1ccccc1Cl
inactive: dose: 3.12 mg/kg/injection, schedule: Q01DX009 (ip), vehicle: water 110 % of control and 111 % of control and 124 % of control | dose: 6.25 mg/kg/injection, schedule: Q01DX009 (ip), vehicle: water 111 % of control | [13] 108 % of control and 113 % of control | dose: 25.0 mg/kg/injection, schedule: Q01DX009 (ip), vehicle: water 94 % of control and 95 % of control

COC1(CO)OCC(O)C(O)C1O (centres undefined)
inactive: dose: 50.0 mg/kg/injection, schedule: Q01DX005 (ip), vehicle: saline 91 % of control | dose: 100.0 mg/kg/injection, schedule: Q01DX005 (ip), vehicle: saline 93 % of control | dose: 200.0 mg/kg/injection, schedule: Q01DX005 (ip), vehicle: saline 101 % of control

COc1cc2c(c(O)c1OC)-c1ccc(OC)c(=O)cc1[C@@H](NC(C)=O)CC2
inactive: dose: 2.5 mg/kg/injection, schedule: Q01DX009 (ip), vehicle: Klucel (hydroxypropylcellulose) (HPC) 102 % of control | dose: 5.0 mg/kg/injection, schedule: Q01DX009 (ip), vehicle: Klucel (hydroxypropylcellulose) (HPC) 93 % of control | dose: 10.0 mg/kg/injection, schedule: Q01DX009 (ip), vehicle: Klucel (hydroxypropylcellulose) (HPC) 96 % of control | dose: 20.0 mg/kg/injection, schedule: Q01DX009 (ip), vehicle: Klucel (hydroxypropylcellulose) (HPC) 93 % of control | dose: 28.0 mg/kg/injection, schedule: Q01DX009 (ip), vehicle: Klucel (hydroxypropylcellulose) (HPC) 86 % of control | dose: 40.0 mg/kg/injection, schedule: Q01DX009 (ip), vehicle: Klucel (hydroxypropylcellulose) (HPC) 102 % of control | dose: 56.0 mg/kg/injection, schedule: Q01DX009 (ip), vehicle: Klucel (hydroxypropylcellulose) (HPC) 96 % of control

CN(C)CCC(=O)c1ccc(O)cc1
inactive: [14] 98 % of control | [15] 105 % of control | [16] 106 % of control

ClC1=C(Cl)C(Cl)=C(Cl)C1=C/C=C/c1ccccc1
inactive: dose: 25.0 mg/kg/injection, schedule: Q01DX009 (ip), vehicle: saline with Tween-80 99 % of control | [4] 100 % of control | [5] 91 % of control

COc1cc(/C=C2/C(=O)N(c3ccccc3)N=C2C)cc(OC)c1OC
inactive: [17] 108 % of control | [18] 104 % of control | [19] 105 % of control

COc1cc(NCCCCCNC(C)(C)C)c2ncccc2c1
inactive: [20] 98 % of control | [21] 98 % of control | [1] 100 % of control and 103 % of control

COc1ccc(-n2nc3c(ccc4ccccc43)c2N)cc1
inactive: [11] 94 % of control | [12] 95 % of control | dose: 240.0 mg/kg/injection, schedule: Q01DX005 (ip), vehicle: saline with Tween-80 94 % of control

CC(C)(O)c1cc(=O)n(Cc2ccccc2)[nH]1
inactive: [8] 106 % of control | [9] 109 % of control | [10] 108 % of control

C=CC[n+]1ccc(/C=N\NC(N)=S)c2ccccc21
inactive: [4] 116 % of control | [5] 110 % of control

CSC(=S)N/N=C/c1cccn1C
inactive: [4] 100 % of control | [5] 91 % of control | [6] 115 % of control

NNC(=O)c1ccc(OCc2nc3ccccc3[nH]2)cc1
inactive: dose: 3.12 mg/kg/injection, schedule: Q01DX005 (ip), vehicle: saline with Tween-80 100 % of control | dose: 6.25 mg/kg/injection, schedule: Q01DX005 (ip), vehicle: saline with Tween-80 100 % of control | [20] 98 % of control | [21] 94 % of control

COc1ccc(CCNC(=O)Cc2ccc(OC)c(OC)c2)cc1OC
inactive: [5] 100 % of control | [6] 106 % of control | [7] 123 % of control
